Measurements published in patent US4755594A, “N^6 -substituted adenosines” (Warner-Lambert Company, priority 1986, dated 1988).

How the values were obtained:
[1] = target: T1, adenosine A1 receptor (Rattus norvegicus, UniProt P25099); assay: Adenosine Receptor Binding--A1 Receptor Affinity (RBA1), [3H]-CHA, whole brain membranes; settings: read-out: RBA-1 IC50
T1 construct: Whole brain minus cerebellum and brainstem from male Long-Evans rats; from tissue; host or cells: whole brain minus cerebellum and brainstem, male Long-Evans rats
T1 sequence (P25099 1-326): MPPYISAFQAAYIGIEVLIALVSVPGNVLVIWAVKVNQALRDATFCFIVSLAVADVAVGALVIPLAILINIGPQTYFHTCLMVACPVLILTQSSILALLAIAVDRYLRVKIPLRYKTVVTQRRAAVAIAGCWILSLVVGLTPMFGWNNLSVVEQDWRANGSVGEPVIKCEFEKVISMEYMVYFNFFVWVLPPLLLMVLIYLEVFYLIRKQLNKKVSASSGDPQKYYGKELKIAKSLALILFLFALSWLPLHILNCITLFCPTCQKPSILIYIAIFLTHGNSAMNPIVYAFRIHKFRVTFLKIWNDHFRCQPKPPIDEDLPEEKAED
Procedure: Adenosine Receptor Binding--A1 Receptor Affinity (RBA1 )
Whole brain minus cerebellum and brainstem from male Long-Evans rats (150-200 g) was homogenized in 30 volumes of ice-cold 0.05M Tris-HCl buffer pH 7.7 using a Brinkman Polytron PT-10, (setting number 6 for 20 seconds) and centrifuged for ten minutes at 20,000 xg (Sorvall RC-2), 4° C. The supernatant was discarded, and the pellet was resuspended and centrifuged as before. The pellet was resuspended in 20 ml Tris-HCl buffer containing two International Units/ml of adenosine deaminase (Sigma type III from calf intestinal mucosa), incubated at 37° C. for 30 minutes, then subsequently at 0° C. for ten minutes. The homogenate was again centrifuged, and the final pellet was resuspended in ice-cold 0.05M Tris-HCl buffer pH 7.7 to a concentration of 20 mg/ml original wet tissue weight and used immediately.
Tissue homogenate (10 mg/ml) was incubated in 0.05M Tris-HCl buffer pH 7.7 containing 1.0 nM [^3 H]--N^6 -cyclohexyladenosine ([^3 H]--CHA) with or without test agents in triplicate for one hour at 25° C. Incubation volume was 2 ml. Unbound [^3 H]--CHA was separated by rapid filtration under reduced pressure through Whatman glass fiber (GF/B) filters. The filters were rinsed three times with 5 ml of ice cold 0.05M Tris-HCl buffer pH 7.7. The radio-labeled ligand retained on the filter was measured by liquid scintillation spectrophotometry after shaking the filters for one hour or longer on a mechanical shaker in 10 ml of Beckman Ready-Solv HP scintillation cocktail.
Nonspecific binding was defined as the binding which occurred in the presence of 1 mM theophylline. The concentration of test agent which inhibited 50% of the specific binding (IC50) was determined by nonlinear computer curve fit. The Scatchard plot was calculated by linear regression of the line obtained by plotting the amount of radioligand bound (pmoles/gram of tissue) [formula] Since the amount of radioligand bound was a small fraction of the total amount added, free radioligand was defined as the concentration of (nM) of radioligand added to the incubation mixture. The Hill coefficient was calculated by linear regression of the line obtained by plotting the log of the bound radioligand vs the log of the [formula] The maximal number of binding sites (Bmax) was calculated from the Scatchard plot.

[2] = Antihypertensive evaluation (AHP3), aortic blood pressure in conscious rats; type: in vivo; settings: conscious rat
From the text: ANTIHYPERTENSIVE EVALUATION (AHP3)
This test procedure is described in the following paragraphs.
A Method for the Direct Monitoring of Aortic Blood
Pressure and Heart Rate from Conscious Rats
The continuous monitoring of pulsatile blood pressure (BP) from unrestrained conscious rats surgically equipped with polyethylene cannulas was accomplished by means of a computer assisted data capture scheme (CADCS). The basic elements of the methodology are the cannulation procedure and the CADCS.
Rats were anesthetized with Telazol (1:1 tiletamine HCl and zolazepam HCl); 20-40 mg/kg IM and the descending aorta exposed via a midline incision. Cannulas fabricated from polyethylene tubing were inserted into the aorta via an undersized puncture hole below the renal arteries. The puncture hole was made by a 23 G disposable needle with a section of the aorta clamped off above and below the puncture site. The cannulas, consisting of a PE100 (0.86 mm ID) body and a PE50 (0.58 mm ID) tip, were attached to a trocar, inserted through the psoas muscle, and passed subcutaneously along the midline of the back and externalized between the ears. The cannulas were anchored to the psoas muscle and between the scalulae (3-0 green braided suture). The midline incision was closed in two steps (muscle first, skin second) using continuous over-and-over sutures (4-0 chronic). Each rat was then given penicillin 30,000 units subcutaneously (Penicillin G Procaine Sterile Suspension).
The rats were fitted with a harness-spring-swivel assembly designed to protect the cannula and to provide the rat relative freedom of movement. The harnesses were fabricated from nylon hook and loop tape cemented to a metal plate to which spring wires (18-8 stainless steel) were attached to brass swivels. Each polyethylene cannula was channeled through a spring and connected through a swivel to a pressure transducer (Model P23Gb; Statham Instruments; Hato Rey, Puerto Rico) and an infusion pump (Sage model 234-7; Orion Research, Cambridge MA) by means of PE100 tubing. While on test, each rat received a continuous slow infusion of heparinized saline solution (approximately 400 μl or 40 units of heparin per 24 hours period) to prevent clot formation. Additional "flushes" of the cannula with heparinized saline were carried out when the aortic pulse pressure (systolic minus diastolic) was less than 25 mm Hg.
The pulsatile blood pressure and heart rate of each of 32 rats was monitored every minute by means of two in-laboratory microcomputers communicating directly with a data concentrator computer. The data were first stored on the data concentrator disk and then transferred to a magnetic tape for analysis and report generation by the main research computer. The overall scheme involved modulating the primary signal from the pressure transducer, generating the primary data set of the one-minute values for systolic, diastolic, and mean blood pressures and heart rate by the in-lab microcomputer and the storage, analysis, and report generation by the main research computer.
The transducers were connected to analog signal conditioning modules. The modules provided a regulated excitation voltage for the transducers, amplification as required to interface the microprocessors and an active low pass filter to compensate for the pressure wave form distortion produced by the flexible, fluid filled, narrow cannula. The distortion was 22-26 Hz and this provided a reliable estimate of both systolic and diastolic blood pressure.
The microcomputers (one for each of two groups of 16 rats) were connected to the input components through the module interface units, an analog-to-digital converter for the pressure wave form signal and the digital inputs for the dose and event marker switches. The microcomputer controlled the sequential acquisition of data from the modular interface units through an internal synchronous time-of-day clock/time base generator. […]

| Structure (SMILES) | IC50 [1] [nM] | Maximum BP ↓ MAP ([2]; 1 mg/kg) [%] | Maximum BP ↓ MAP ([2]; 3 mg/kg) [%] | Maximum BP ↓ MAP ([2]; 10 mg/kg) [%] |
| --- | --- | --- | --- | --- |
| OC[C@H]1O[C@@H](n2cnc3c(NCC4(c5ccccc5)CC4)ncnc32)[C@H](O)[C@@H]1O [Example 1, N6-((1-Phenylcyclopropyl)methyl)adenosine] | 28 | 13 | 23 | 23 |
| OC[C@H]1O[C@@H](n2cnc3c(NCC4(c5cccc(Cl)c5)CC4)ncnc32)[C@H](O)[C@@H]1O [Example 2, N6-((1-(3-Chlorophenyl)cyclopropyl)methyl)adenosine] | 32 | – | – | – |
| OC[C@H]1O[C@@H](n2cnc3c(NCC4(c5cccs5)CC4)ncnc32)[C@H](O)[C@@H]1O [Example 3, N6-((1-Thien-2-ylcyclopropyl)methyl)adenosine] | 7.3 | – | 43 | – |
| O[C@@H]1[C@H](O)[C@@H](CCl)O[C@H]1n1cnc2c(NCC3(c4ccccc4)CC3)ncnc21 [Example 5, 5'-Deoxy-5'-chloro-N6-((1-phenylcyclopropyl)methyl)adenosine] | 52 | – | – | – |
| O[C@@H]1[C@H](O)[C@@H](CCl)O[C@H]1n1cnc2c(NCC3(c4cccs4)CC3)ncnc21 [Example 6, 5'-Chloro-5'-deoxy-N6-((1-thien-2-ylcyclopropyl)methyl)adenosine] | 18 | – | – | – |
| OC[C@H]1O[C@@H](n2cnc3c(NCC4(c5ccccc5)CCC4)ncnc32)[C@H](O)[C@@H]1O [Example 7, N6-((1-Phenylcyclobutyl)methyl)adenosine] | 16 | – | – | 32 |
| OC[C@H]1O[C@@H](n2cnc3c(NCC4(c5cccs5)CCC4)ncnc32)[C@H](O)[C@@H]1O [Example 9, N6-((1-Thien-2-ylcyclobutyl)methyl)adenosine] | 5.6 | – | 10 | – |

Continued, in another order:

| IC50 [1] [nM] | Structure (SMILES) | Maximum BP ↓ MAP ([2]; 1 mg/kg) [%] | Maximum BP ↓ MAP ([2]; 3 mg/kg) [%] | Maximum BP ↓ MAP ([2]; 10 mg/kg) [%] |
| --- | --- | --- | --- | --- |
| 31 | OC[C@H]1O[C@@H](n2cnc3c(NCC4(c5cccc(Cl)c5)CCC4)ncnc32)[C@H](O)[C@@H]1O [Example 8, N6-((1-(3-Chlorophenyl)cyclobutyl)methyl)adenosine] | – | – | – |
| 110 | OC[C@H]1O[C@@H](n2cnc3c(NCC4(c5ccccc5)CCCC4)ncnc32)[C@H](O)[C@@H]1O [Example 10, N6-((1-Phenylcyclopentyl)methyl)adenosine] | – | – | 10 |
| 410 | OC[C@H]1O[C@@H](n2cnc3c(NCC4(c5ccccc5)CCCCC4)ncnc32)[C@H](O)[C@@H]1O [Example 11, N6-((1-Phenylcyclohexyl)methyl)adenosine] | – | – | 5 |
| 70 | OC[C@H]1O[C@@H](n2cnc3c(NCC4(c5ccc(Cl)cc5)CC4)ncnc32)[C@H](O)[C@@H]1O [Example 12, N6-((1-(4-Chlorophenyl)cyclopropyl)methyl)adenosine] | – | – | 23 |
